The test system of one assay is HSV-1. Briefly: Anti-viral assay: GFP-encoding HSV-1 infection of pre-treated BHK cells, infected cells counted. The class given is cell-based, herpes simplex virus 1. On the procedure: (§1) BHK cells were incubated with decreasing concentration of the solubilized test compounds for approx. 1 h. All concentrations were analyzed by six independent replicates on a black 96-well plate (PerkinElmer). Cells were infected with GFP-encoding wildtype HSV-1 virus and incubated for two days. Two days after infection, HSV-1-infected cells and GFP expressing cells were directly counted using the PerkinElmer Ensight system with optical cell culture plates. The instrument was controlled by […]. Anti-viral assays for HHV8 and mCMV were performed accordingly.
The cells were subsequently infected with GFP-encoding HSV at a multiplicity of infection of 2.5, and infected GFP-expressing cells were counted one day after infection using the PerkinElmer Ensight system. […] Thus, the sugar is not required as potential co-factor for drug uptake.

The test system of assay [1] is HSV-1 related intracellular β-Amyloid deposition in SH-SY5Y (neuroblastoma) cells. As to the kind of experiment: β-Amyloid assay: intracellular deposition of β-Amyloid in HHV-1-infected SH-SY5Y cells (immunofluorescence, qualitative). The note with it: 500, 250 and 125 μg/ml. The class given is cell-based. On the procedure: Samples were fixed using Histofix and permeabilized with 0.05% Triton X-100 in phosphate-buffered saline for 5 min. Blocking steps were performed with 3% bovine serum albumin for 1 h followed by primary antibody incubation with rabbit polyclonal anti-beta amyloid 1-42 and polyclonal goat anti-green fluorescent protein. Antibodies were diluted 1:100 and 1:1000, respectively, and were incubated overnight. To visualize β-Amyloid antibodies, donkey anti-rabbit AlexaFluor® 555 secondary antibodies were used (diluted 1:400); to detect the GFP antibodies donkey anti-goat AlexaFluor® 647 secondary antibodies (diluted 1:400) were used. The samples were then mounted in Fluoromount-G™ with DAPI and analyzed with the BZ-9000 BIOREVO System (Keyence).
Herpes virus infections and specifically HSV-1 infections are correlated to intracellular R-Amyloid and tau-protein deposition in cells of the CNS in progression of Alzheimer's disease. […] Therefore, in a first step the infectability of SH-SYSY neuroblastoma cells with HHV-1 was tested. After incubation of SH-SYSY cultures with HHV-1 (MOI=8), an infection rate of >90% (qualitatively) was detected that came along with high intracellular β-Amyloid deposition.

The subject of the next assay is HHV-8. As to the kind of experiment: Anti-viral assay: GFP-encoding HHV-8 infection, infected cells counted. The format is cell-based, Herpes virus 8. Here is the method: as §1
The concentrations of materials were again adjusted to the same levels of anthocyanins (except the single berry extracts). No treatment or only maltodextrin served as controls. The cells were subsequently infected with GFP-encoding HHV-8, and infected GFP-expressing cells were counted two days after infection using the PerkinElmer Ensight system.

For `COc1cc(-c2[o+]c3cc(O)cc(O)c3cc2O[C@@H]2O[C@H](CO)[C@@H](O)[C@H](O)[C@H]2O)cc(O)c1O` [Pet3G, Petunidin 3-glucoside], the “inhibition of HSV-1 by single anthocyanins” value in the assay on HSV-1 is “Neither C3G nor D3Gal or Pet3G inhibited HSV-1”.

`OC[C@H]1O[C@@H](Oc2cc3c(O)cc(O)cc3[o+]c2-c2cc(O)c(O)c(O)c2)[C@H](O)[C@@H](O)[C@H]1O` [D3Gal, Delphinidin 3-galactoside]: the “inhibition of HSV-1 by single anthocyanins” value with HSV-1 is “Neither C3G nor D3Gal or Pet3G inhibited HSV-1”. For maltodextrin, in assay [1], the “infected and β-Amyloid-positive cells” value is recorded as “HHV-1-infected cells were mostly β-Amyloid-positive”. As for `OC[C@H]1OC(Oc2cc3c(O)cc(O)cc3[o+]c2-c2cc(O)c(O)c(O)c2)[C@H](O)C(O)C1O` (stereo partly drawn) [D3G, Delphinidin 3-glucoside], the “inhibition of HSV-1 by single anthocyanins” value in the assay on HSV-1 is “decreased viral infectivity like Healthberry® 865”. In the assay with HHV-8, the “viral inhibition of HHV-8 (in words)” value is listed as “identified as an active ingredient in Healthberry® 865”. As to `OC[C@H]1O[C@@H](Oc2cc3c(O)cc(O)cc3[o+]c2-c2ccc(O)c(O)c2)[C@H](O)[C@@H](O)[C@@H]1O` [C3G, Cyanidin 3-glucoside], the “inhibition of HSV-1 by single anthocyanins” value in the assay with HSV-1 is on record as “Neither C3G nor D3Gal or Pet3G inhibited HSV-1”.

Source of the values: patent publication US20220184164A1, “PREPARATIONS CONTAINING BERRY EXTRACTS FOR USE IN THE PROPHYLAXIS AND/OR TREATMENT OF VIRAL INFECTIONS CAUSED BY HERPESVIRIDAE” (Evonik Operations GmbH, priority 2019, published 2022).
